Active and inactive are the calls of the source. The rule behind the calls is not given here.
System: CCRIS mutagenicity, Ames/micronucleus/aberration tests
Assay: CCRIS mutagenicity studies
[1] = Test System: AMES SALMONELLA TYPHIMURIUM, Strain/Indicator: TA98, Metabolic Activation: NONE, Method: STANDARD PLATE
[2] = Test System: AMES SALMONELLA TYPHIMURIUM, Strain/Indicator: TA98, Metabolic Activation: RAT, LIVER, S-9, AROCLOR 1254, Method: STANDARD PLATE
[3] = Test System: AMES SALMONELLA TYPHIMURIUM, Strain/Indicator: TA100, Metabolic Activation: NONE, Method: STANDARD PLATE
[4] = Test System: AMES SALMONELLA TYPHIMURIUM, Strain/Indicator: TA100, Metabolic Activation: RAT, LIVER, S-9, AROCLOR 1254, Method: STANDARD PLATE
[5] = Test System: AMES SALMONELLA TYPHIMURIUM, Strain/Indicator: TA1537, Metabolic Activation: NONE, Method: STANDARD PLATE
[6] = Test System: AMES SALMONELLA TYPHIMURIUM, Strain/Indicator: TA100, Metabolic Activation: NONE, Method: PREINCUBATION
[7] = Test System: AMES SALMONELLA TYPHIMURIUM, Strain/Indicator: TA100, Metabolic Activation: RAT, LIVER, S-9, PCB, Method: PREINCUBATION
[8] = Test System: Ames Salmonella typhimurium, Strain/Indicator: TA100, Metabolic Activation: None, Method: Preincubation
[9] = Test System: AMES SALMONELLA TYPHIMURIUM, Strain/Indicator: TA98, Metabolic Activation: NONE, Method: PREINCUBATION

Nc1ccc(CCc2ccc(N)cc2)cc1
mutagenic call [1]: inactive; negative
mutagenic call [2]: active; positive
mutagenic call [3]: inactive; negative
mutagenic call [4]: active; positive

c1ccc([C@H]2N[C@H]2c2ccccc2)cc1
mutagenic call [1]: inactive; negative
mutagenic call [3]: active; positive
mutagenic call [5]: inactive; negative

CC(C)CCOS(C)(=O)=O
mutagenic call (End Point: IN VITRO MICRONUCLEUS, Test System: MOUSE LYMPHOMA L5178Y CELLS, Metabolic Activation: NONE): active; positive
mutagenic call (End Point: IN VITRO MICRONUCLEUS, Test System: MOUSE LYMPHOMA L5178Y CELLS, Metabolic Activation: RAT, LIVER, S-9): inactive; negative
mutagenic call [3]: active; positive
mutagenic call (Test System: AMES SALMONELLA TYPHIMURIUM, Strain/Indicator: TA100, Metabolic Activation: RAT, LIVER, S-9, Method: STANDARD PLATE): active; positive

Oc1ccc(N=Nc2ccccn2)c(O)c1
mutagenic call (End Point: Mouse lymphoma, Test System: L5178Y (TK+/TK-)/trifluorothymidine, Metabolic Activation: None, Method: Suspension/plate): inactive; negative
mutagenic call (End Point: Mouse lymphoma, Test System: L5178Y (TK+/TK-)/trifluorothymidine, Metabolic Activation: Rat, Liver, S-9, Method: Suspension/plate): inactive; negative
mutagenic call (Test System: Ames Salmonella typhimurium, Strain/Indicator: TA98, Metabolic Activation: None): inactive; negative
mutagenic call (Test System: Ames Salmonella typhimurium, Strain/Indicator: TA98, Metabolic Activation: Rat, Liver, S-9): inactive; negative
mutagenic call (Test System: Ames Salmonella typhimurium, Strain/Indicator: TA100, Metabolic Activation: None): inactive; negative
mutagenic call (Test System: Ames Salmonella typhimurium, Strain/Indicator: TA100, Metabolic Activation: Rat, Liver, S-9): inactive; negative
mutagenic call (Test System: Ames Salmonella typhimurium, Strain/Indicator: TA1535, Metabolic Activation: None): inactive; negative
mutagenic call (Test System: Ames Salmonella typhimurium, Strain/Indicator: TA1535, Metabolic Activation: Rat, Liver, S-9): inactive; negative
mutagenic call (Test System: Ames Salmonella typhimurium, Strain/Indicator: TA1537, Metabolic Activation: None): inactive; negative
mutagenic call (Test System: Ames Salmonella typhimurium, Strain/Indicator: TA1537, Metabolic Activation: Rat, Liver, S-9): inactive; negative

Cc1ccc(NO)c(C)c1
mutagenic call [6]: active; positive
mutagenic call [7]: active; positive

Nc1cccc2c1C(=O)c1cccc(N)c1C2=O
mutagenic call [1]: inactive; negative
mutagenic call [2]: active; positive
mutagenic call [3]: inactive; negative
mutagenic call [4]: inactive; negative
mutagenic call (Test System: AMES SALMONELLA TYPHIMURIUM, Strain/Indicator: TA1535, Metabolic Activation: NONE, Method: STANDARD PLATE): inactive; negative
mutagenic call (Test System: AMES SALMONELLA TYPHIMURIUM, Strain/Indicator: TA1535, Metabolic Activation: RAT, LIVER, S-9, AROCLOR 1254, Method: STANDARD PLATE): inactive; negative
mutagenic call [5]: inactive; negative
mutagenic call (Test System: AMES SALMONELLA TYPHIMURIUM, Strain/Indicator: TA1538, Metabolic Activation: NONE, Method: STANDARD PLATE): inactive; negative
mutagenic call (Test System: AMES SALMONELLA TYPHIMURIUM, Strain/Indicator: TA1538, Metabolic Activation: RAT, LIVER, S-9, AROCLOR 1254, Method: STANDARD PLATE): active; positive

Nc1ccc(O)c2c1C(=O)C=CC2=O
mutagenic call (Test System: Ames Salmonella typhimurium, Strain/Indicator: TA97, Metabolic Activation: None, Method: Preincubation): inactive; negative
mutagenic call (Test System: Ames Salmonella typhimurium, Strain/Indicator: TA97, Metabolic Activation: Rat, Liver, S9, Aroclor 1254, Method: Preincubation): inactive; negative
mutagenic call (Test System: Ames Salmonella typhimurium, Strain/Indicator: TA98, Metabolic Activation: None, Method: Preincubation): active; positive
mutagenic call (Test System: Ames Salmonella typhimurium, Strain/Indicator: TA98, Metabolic Activation: Rat, Liver, S9, Aroclor 1254, Method: Preincubation): active; positive
mutagenic call [8]: inactive; negative
mutagenic call (Test System: Ames Salmonella typhimurium, Strain/Indicator: TA100, Metabolic Activation: Rat, Liver, S9, Aroclor 1254, Method: Preincubation): inactive; negative
mutagenic call (Test System: Ames Salmonella typhimurium, Strain/Indicator: TA102, Metabolic Activation: None, Method: Preincubation): inactive; negative
mutagenic call (Test System: Ames Salmonella typhimurium, Strain/Indicator: TA102, Metabolic Activation: Rat, Liver, S9, Aroclor 1254, Method: Preincubation): active; positive

O[C@@H]1C=Cc2c(ccc3c2ccc2ccccc23)[C@H]1O
mutagenic call [1]: inactive; negative
mutagenic call (Test System: AMES SALMONELLA TYPHIMURIUM, Strain/Indicator: TA100, Metabolic Activation: EPITHELIAL CELL-MEDIATED, AROCLOR 1254, Method: PREINCUBATION): active; positive
mutagenic call (Test System: AMES SALMONELLA TYPHIMURIUM, Strain/Indicator: TA100, Metabolic Activation: EPITHELIAL CELL-MEDIATED, Method: PREINCUBATION): inactive; negative
mutagenic call (Test System: AMES SALMONELLA TYPHIMURIUM, Strain/Indicator: TA100, Metabolic Activation: KUPFFER CELL-MEDIATED, AROCLOR 1254, Method: PREINCUBATION): active; positive
mutagenic call (Test System: AMES SALMONELLA TYPHIMURIUM, Strain/Indicator: TA100, Metabolic Activation: KUPFFER CELL-MEDIATED, Method: PREINCUBATION): inactive; negative
mutagenic call [3]: inactive; negative
mutagenic call (Test System: AMES SALMONELLA TYPHIMURIUM, Strain/Indicator: TA100, Metabolic Activation: PARENCHYMAL CELL-MEDIATED, AROCLOR 1254, Method: PREINCUBATION): active; positive
mutagenic call (Test System: AMES SALMONELLA TYPHIMURIUM, Strain/Indicator: TA100, Metabolic Activation: PARENCHYMAL CELL-MEDIATED, NADPH, Method: PREINCUBATION): active; positive
mutagenic call (Test System: AMES SALMONELLA TYPHIMURIUM, Strain/Indicator: TA100, Metabolic Activation: PARENCHYMAL CELL-MEDIATED, Method: PREINCUBATION): inactive; negative
mutagenic call [4]: active; positive

[O-][n+]1cc2cnccc2cn1
mutagenic call [9]: active; positive
mutagenic call (Test System: AMES SALMONELLA TYPHIMURIUM, Strain/Indicator: TA98, Metabolic Activation: RAT, LIVER, S-9, PCB, Method: PREINCUBATION): active; positive
mutagenic call [6]: inactive; negative
mutagenic call [7]: inactive; negative

CCc1cccc(CC)c1N
mutagenic call [9]: inactive; negative
mutagenic call [1]: inactive; negative
mutagenic call (Test System: AMES SALMONELLA TYPHIMURIUM, Strain/Indicator: TA98, Metabolic Activation: RAT, LIVER, MICROSOMES, PHENOBARBITAL, Method: PREINCUBATION): inactive; negative
mutagenic call [2]: active; positive
mutagenic call [6]: inactive; negative
mutagenic call [3]: inactive; negative
mutagenic call (Test System: AMES SALMONELLA TYPHIMURIUM, Strain/Indicator: TA100, Metabolic Activation: RAT, LIVER, MICROSOMES, PHENOBARBITAL, Method: PREINCUBATION): inactive; negative
mutagenic call [4]: active; positive
mutagenic call (Test System: Ames Salmonella typhimurium, Strain/Indicator: TA97, Metabolic Activation: None, Method: Suspension): active; positive
mutagenic call (Test System: Ames Salmonella typhimurium, Strain/Indicator: TA98, Metabolic Activation: None, Method: Suspension): active; positive
mutagenic call [8]: inactive; negative
mutagenic call (Test System: Ames Salmonella typhimurium, Strain/Indicator: TA1535, Metabolic Activation: None, Method: Suspension): inactive; negative
mutagenic call (Test System: Ames Salmonella typhimurium, Strain/Indicator: TA1537, Metabolic Activation: None, Method: Suspension): inactive; negative
mutagenic call (Test System: Ames Salmonella typhimurium, Strain/Indicator: TA1538, Metabolic Activation: None, Method: Suspension): active; positive (weak response; no dose response)

Reference: PubChem BioAssay AID1259407 (Chemical Carcinogenesis Research Information System (CCRIS), 2018)
